Earlier results as cited in article PMC8583936, “Machine Learning Assisted Approach for Finding Novel High Activity Agonists of Human Ectopic Olfactory Receptors” (International Journal of Molecular Sciences, 2021).
Where two headings read alike, the source gives them in different places.

Columns and labels:
OR1A1 = target: T1, OR1A1 (Homo sapiens, UniProt Q9P1Q5); conditions: cited from earlier work
T1 sequence (Q9P1Q5 1-309): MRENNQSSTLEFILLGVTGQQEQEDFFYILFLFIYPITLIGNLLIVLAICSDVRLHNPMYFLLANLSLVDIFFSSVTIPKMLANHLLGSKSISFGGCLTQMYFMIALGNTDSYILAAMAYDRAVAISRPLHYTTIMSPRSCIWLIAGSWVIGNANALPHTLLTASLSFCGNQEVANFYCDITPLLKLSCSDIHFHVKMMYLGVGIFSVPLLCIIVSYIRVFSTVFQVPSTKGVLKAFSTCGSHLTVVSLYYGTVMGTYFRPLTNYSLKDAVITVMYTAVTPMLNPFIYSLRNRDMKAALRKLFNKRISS

OR2W1 = target: T2, OR2W1 (Homo sapiens, UniProt Q9Y3N9); conditions: cited from earlier work
T2 sequence (Q9Y3N9 1-320): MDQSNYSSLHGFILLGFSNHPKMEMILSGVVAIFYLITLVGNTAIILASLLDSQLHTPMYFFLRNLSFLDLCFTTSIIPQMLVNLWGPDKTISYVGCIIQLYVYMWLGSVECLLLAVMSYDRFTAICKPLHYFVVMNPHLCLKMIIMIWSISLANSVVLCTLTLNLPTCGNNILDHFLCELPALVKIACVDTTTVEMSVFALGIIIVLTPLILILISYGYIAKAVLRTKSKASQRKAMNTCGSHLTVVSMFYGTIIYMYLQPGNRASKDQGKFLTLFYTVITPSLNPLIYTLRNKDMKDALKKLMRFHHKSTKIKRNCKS

[1] = Table S1, ref Supplement references [1]-[9] as printed after each odorant name
[2] = Table S2, ref Supplement references [2]-[12] as printed after each odorant name

| Structure (SMILES) | Class (agonist / non-agonist / conflicting info.) for OR1A1 (OR1A1; [1]) | Class (agonist / non-agonist / antagonist / conflicting info.) for OR2W1 (OR2W1; [2]) | Class (agonist / non-agonist / antagonist / conflicting info.) for OR2W1 (OR2W1; Table S2, ref Supplement references [2]-[12] as printed after each odorant name, listed as Capric acid) | Class (agonist / non-agonist / conflicting info.) for OR1A1 (OR1A1) | Class (agonist / non-agonist / antagonist / conflicting info.) for OR2W1 (OR2W1) |
| --- | --- | --- | --- | --- | --- |
| CCCCCCCCCC=O [Decanal] | Conflicting info. | Non-agonist |  |  |  |
| CCCCCCCCCC(=O)O [Decanoic acid / capric acid] | Non-agonist |  | Conflicting info. |  |  |
| CCCCCC1CCCC(=O)O1 (centres unmarked) [Delta-decalactone] | Non-agonist | Non-agonist |  |  |  |
| CCCCCCCC1CCCC(=O)O1 (centres unmarked) [Delta-dodecalactone] | Non-agonist | Non-agonist |  |  |  |
| CC(=O)C(C)=O [Diacetyl] | Non-agonist | Non-agonist |  |  |  |
| CCCCCC1=C(C)CCC1=O [Dihydrojasmone] | Agonist | Agonist |  |  |  |
| CC1(C)CC(=O)CC(=O)C1 [Dimedone] | Non-agonist | Non-agonist |  |  |  |
| CSSC [Dimethyl disulfide] |  |  |  | Conflicting info. | Non-agonist |
| CSC [Dimethyl sulfide] | Non-agonist | Non-agonist |  |  |  |
| CSSSC [Dimethyl trisulfide] | Non-agonist | Non-agonist |  |  |  |
| CCCSSSCCC [Dipropyl trisulfide] | Non-agonist | Non-agonist |  |  |  |
| CCCCC/C=C/C=C/C=O [E,E-2,4-decadienal] | Conflicting info. | Non-agonist |  |  |  |
| CCCC/C=C/C=C/C=O [E,E-2,4-nonadienal] | Non-agonist | Non-agonist |  |  |  |
| CC/C=C\CC/C=C/C=O [E,Z-2,6-nonadienal] | Non-agonist | Non-agonist |  |  |  |
| C=CCc1ccc(OC)cc1 [Estragole] |  |  |  | Agonist | Agonist |
| CCO [Ethanol] | Non-agonist | Non-agonist |  |  |  |
| CCOC(=O)C(C)CC (centres unmarked) [Ethyl 2-methylbutyrate] | Non-agonist | Non-agonist |  |  |  |
| CCCC(O)CC(=O)OCC (centres unmarked) [Ethyl 3-hydroxyhexanoate] | Non-agonist | Non-agonist |  |  |  |
| CCOC(=O)CCC(C)C [Ethyl 4-methylvalerate] | Non-agonist | Non-agonist |  |  |  |
| CCOC(C)=O [Ethyl acetate] | Non-agonist | Non-agonist |  |  |  |
| CCOC(=O)c1ccccc1 [Ethyl benzoate] |  |  |  | Non-agonist | Non-agonist |
| CCCC(=O)OCC [Ethyl butyrate] | Non-agonist | Non-agonist |  |  |  |

| Structure (SMILES) | Class (agonist / non-agonist / conflicting info.) for OR1A1 (OR1A1; [1]) | Class (agonist / non-agonist / antagonist / conflicting info.) for OR2W1 (OR2W1; [2]) | Class (agonist / non-agonist / antagonist / conflicting info.) for OR2W1 (OR2W1; Table S2, ref Supplement references [2]-[12] as printed after each odorant name, listed as Capric acid) | Class (agonist / non-agonist / conflicting info.) for OR1A1 (OR1A1) | Class (agonist / non-agonist / antagonist / conflicting info.) for OR2W1 (OR2W1) |
| --- | --- | --- | --- | --- | --- |
| CCOC(=O)/C=C/c1ccccc1 [Ethyl cinnamate] | Non-agonist | Non-agonist |  |  |  |
| CCOC(=O)C1CCCCC1 [Ethyl cyclohexanecarboxylate] | Agonist | Agonist |  |  |  |
| CCCCCCCCCC(=O)OCC [Ethyl decanoate] |  |  |  | Non-agonist | Non-agonist |
| CCCCCC(=O)OCC [Ethyl hexanoate] | Agonist | Non-agonist |  |  |  |
| CCOC(=O)C(C)C [Ethyl isobutyrate] | Non-agonist | Non-agonist |  |  |  |
| CCOC(=O)CC(C)C [Ethyl isovalerate] | Non-agonist | Non-agonist |  |  |  |
| CCCCCCCC(=O)OCC [Ethyl octanoate] |  |  |  | Non-agonist | Non-agonist |
| CCCCC(=O)OCC [Ethyl pentanoate] |  |  |  | Non-agonist | Non-agonist |
| CCOC(=O)C(C)=O [Ethyl pyruvate] | Non-agonist | Non-agonist |  |  |  |
| CCOc1cc(C=O)ccc1O [Ethyl vanillin] | Conflicting info. | Conflicting info. |  |  |  |
| C=CC(=O)CC [Ethyl vinyl ketone] | Non-agonist | Non-agonist |  |  |  |
| O=C1CCCCCCCCCCCC(=O)OCCO1 [Ethylene brassylate] | Conflicting info. | Antagonist |  |  |  |
| CCOC(=O)Cc1ccccc1 [Ethylphenyl acetate] |  |  |  | Agonist | Non-agonist |
| C=CCc1ccc(OC)c(OC)c1 [Eugenol methyl ether] | Conflicting info. | Non-agonist |  |  |  |
| C=CCc1ccc(O)c(OC)c1 [Eugenol] |  |  |  | Conflicting info. | Conflicting info. |
| C=CCc1ccc(OC(C)=O)c(OC)c1 [Eugenyl acetate] | Non-agonist | Agonist |  |  |  |
| C/C=C/C(=O)C(C)CC (centres unmarked) [Filbertone] | Non-agonist | Non-agonist |  |  |  |
| CC1=C(O)C(=O)C(C)O1 (centres unmarked) [Furaneol] | Non-agonist | Non-agonist |  |  |  |
| SCc1ccco1 [Furfurylthiol] | Non-agonist | Non-agonist |  |  |  |
| CCCCCCCC1CCC(=O)O1 (centres unmarked) [Gamma-undecalactone] |  |  |  | Non-agonist | Non-agonist |
| CC(C)=CCC/C(C)=C/CO [Geraniol] | Conflicting info. | Conflicting info. |  |  |  |
